This is an account of results in patent US12559474B2, “Triazine derivatives having virus replication inhibitory activity and pharmaceutical composition comprising the same” (priority 2021, dated 2026).

“And” between values parts separate entries of the source, which are not always exact repeats. Identical values can stand only once. Where only a bound is given, the exact number is not on record here.

The first assay concerns SARS-CoV-2. As to the kind of experiment: microbe, parasite or virus in culture. The conditions noted are these: Severe acute respiratory syndrome coronavirus 2, VeroE6/TMPRSS2, 72 h, 50% SARS-CoV-2 infected cell death inhibitory concentration; VeroE6/TMPRSS2 cells, 3 days culture; class symbols. In kind it is cell-based.
By EC50 is commonly meant the concentration at which the effect is half-maximal. Take `Cn1cnc(Cn2c(=O)nc(Nc3cc4cn(C)nc4cc3Cl)n(Cc3cc(F)ccc3F)c2=O)n1` [II-0208]: the 50% effective concentration (EC50) lay within 1000 to 10000 nM.

The same assay, now with this note: at concentrations up to 50 μM; tested as in Test Example 1 (Reference Example 1).
Consider `Cc1ccc(Cn2c(=O)nc(Nc3cccc(C(F)(F)F)c3)n(Cc3ccc(Cl)c(Cl)c3)c2=O)cc1` [Compound I-066, reference compound], for which the “coronavirus replication inhibitory activity” value is recorded as “did not show coronavirus replication inhibitory activity”. Take `CC(C)Oc1ccc(/N=c2\[nH]c(=O)n(Cc3ncn[nH]3)c(=O)n2Cc2ccc(Cl)cc2)cc1F` [Compound I-0679, reference compound]: the “coronavirus replication inhibitory activity” value is “did not show coronavirus replication inhibitory activity”.

With `O=C(O)c1ccc(Oc2ccc(/N=c3\[nH]c(=O)n(-c4cccs4)c(=O)n3Cc3ccc(Cl)cc3)cc2)nc1` [Compound I-575, reference compound], the “coronavirus replication inhibitory activity” value is listed as “did not show coronavirus replication inhibitory activity”. Turning to `Cc1nc2ccc(/N=c3\[nH]c(=O)n(C[C@H]4COC(C)(C)O4)c(=O)n3Cc3ccc(Cl)cc3)cc2s1` [Compound I-1603, reference compound], the “coronavirus replication inhibitory activity” value was “did not show coronavirus replication inhibitory activity”.

Consider `CC(C)Oc1ccc(/N=c2\[nH]c(=O)n(Cc3ccc[nH]c3=O)c(=O)n2Cc2ccc(Cl)cc2)cc1F` [Compound I-0685, reference compound], for which the “coronavirus replication inhibitory activity” value was “did not show coronavirus replication inhibitory activity”.

As for `COc1ncccc1Cn1c(=O)[nH]/c(=N\c2ccc(OC(C)C)c(F)c2)n(Cc2ccc(Cl)cc2)c1=O` [Compound I-0683, reference compound], the “coronavirus replication inhibitory activity” value is “did not show coronavirus replication inhibitory activity”.

The next assay concerns the target SARS-CoV-2 3CL protease (Severe acute respiratory syndrome coronavirus 2, UniProt P0DTD1). In words: biochemical. The conditions noted are these: IC50.
The IC50 is the concentration that gives 50% inhibition. The low end stands for higher potency, the high end for lower potency. The molecule `Cc1cncc(-n2c(=O)nc(Nc3cc(Cl)c(N=S4(=O)CCCC4)cc3Cl)n(Cc3cc(Cl)ccc3C)c2=O)c1` [II-0619] showed a half-maximal inhibitory concentration (IC50) of less than 100 nM. The same measure, in the same setting: the result for `CNc1cncc(-n2c(=O)nc(Nc3cc4c(cc3Cl)OCC4)n(Cc3cc(F)c(F)cc3F)c2=O)c1` [II-0613] reads less than 100 nM; that for `CCS(=O)(CC)=Nc1ccc(Nc2nc(=O)n(-c3cncc(C)c3)c(=O)n2Cc2cc(Cl)ccc2C)c(Cl)c1` [II-0621], less than 100 nM. In turn, `Cc1cncc(-n2c(=O)nc(Nc3ccc(N=S(C)(C)=O)cc3OC(F)(F)F)n(Cc3cc(Cl)ccc3C)c2=O)c1` [II-0632] yielded a half-maximal inhibitory concentration (IC50) of less than 100 nM. `COC(=O)NC12CC(Nc3nc(=O)n(Cc4ccc[nH]c4=O)c(=O)n3Cc3cc(F)c(F)c(F)c3)(C1)C2` [II-0062] came in with a half-maximal inhibitory concentration (IC50) of less than 100 nM.

Molecule `Cc1cncc(-n2c(=O)nc(Nc3ccc(N=S(C)(C)=O)cc3Cl)n(Cc3cc(Cl)ccc3C)c2=O)c1` [II-0625] had a concentration for half-maximal inhibition (IC50) of less than 100 nM.

Regarding `CS(=O)(=O)Nc1ccc(Nc2nc(=O)n(Cc3ccc[nH]c3=O)c(=O)n2Cc2cc(F)c(F)c(F)c2)cc1` [Compound I-0151], the 50% inhibitory concentration (IC50) is 970 nM and 100 to 1000 nM. The molecule `CN1CC[C@H](n2cc3cc(Nc4nc(=O)n(Cc5ncn(C)n5)c(=O)n4Cc4cc(Cl)c(F)cc4F)c(Cl)cc3n2)C1=O` [II-0447] gave an IC50 of less than 100 nM. Consider `CNC(=O)c1c[nH]c(=O)c(Cn2c(=O)nc(Nc3ccc(OC)cc3)n(Cc3cc(F)c(F)c(F)c3)c2=O)c1` [Compound I-0087], for which the IC50 was less than 100 nM. The same measure, in the same setting: next, `Cc1nc2cc(Cl)c(Nc3nc(=O)n(Cc4ccc[nH]c4=O)c(=O)n3Cc3cc(F)c(F)c(F)c3)cn2n1` [Compound I-0442]: less than 100 nM; `COc1cc(N=S(C)(C)=O)ccc1Nc1nc(=O)n(-c2cncc(C)c2)c(=O)n1Cc1cc(Cl)ccc1C` [II-0633]: less than 100 nM. Molecule `COc1ccnc(NC23CC(Nc4nc(=O)n(Cc5ncn(C)n5)c(=O)n4Cc4cc(F)c(F)c(F)c4)(C2)C3)n1` [II-0113] came in with an IC50 of less than 100 nM. The molecule `CNC(=O)Cn1cc2cc(Nc3nc(=O)n(Cc4ncn(C)n4)c(=O)n3Cc3cc(Cl)c(F)cc3F)c(Cl)cc2n1` [II-0137] gave an IC50 of less than 100 nM. On the same count and under the same terms, next, `N#Cc1cc(Cn2c(Nc3ccc4c(c3)CCO4)nc(=O)n(-c3cncc(CO)c3)c2=O)ccc1F` [Compound I-0356]: less than 100 nM.
